Earlier results on two compounds are cited in paper PMC7522491 (Molecular Metabolism, 2020).

Where no end group is shown, it is not given here.

The conditions of data set [1]: administration in mice.
For data set [2] the following is noted: infusion into the portal circulation, dogs.

Consider “glucagon-like peptide-1 (HAEGTFTSDVSSYLEGQAAKEFIAWLVKGR; ends and bridges not checked; UniProt P55095 98-127, looked up) [GLP-1, incretin hormone administered in mice (literature)]”, for which, in data set [1], the “blood insulin levels / insulin clearance” value is listed as “increased blood insulin levels in part by reducing insulin clearance”.
As for `CCCCCCCC/C=C\CCCCCCCC(=O)O` [oleate], the hepatic insulin clearance result in data set [2] was “suppressed hepatic insulin clearance”.
